Results on 5 compounds are retold here after patent US20230000842A1, “METHODS OF TREATING CARTILAGE DISORDERS THROUGH INHIBITION OF CLK AND DYRK” (SAMUMED, LLC, priority 2019, published 2023).

Test [1] concerns the target CLK3 kinase (Homo sapiens, UniProt P49761). Description: CLK3 kinase activity assay (Z-lyte FRET).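 Also: kinase activity read as coumarin/fluorescein emission ratio by FRET, unphosphorylated peptide as 0% and phosphorylated peptide as 100% control, values from non-linear regression of dose-response curves.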 The class given is biochemical. Particulars: Z-lyte Ser/Thr 18 peptide, 156 μM ATP, 1 h at room temperature.
For test [2], the system named is Wnt pathway activity (SW480 colon carcinoma cells stably expressing the Sp5-Luc reporter). In words: Wnt pathway activity screening assay (Sp5-Luc reporter gene assay). The note with it: Homo sapiens.
In test [3] the test system is MMP-3 levels in supernatant of chondrocytes stimulated with IL1-β. In words: Chondrocyte protection assay compound screening (MMP-3 LANCE Ultra). It counts as cell-based, human. Particulars: Homo sapiens, Chondrocyte, IL1-β 10 ng/mL overnight, 11-point curves from 3 μM to 0.05 nM; for Emax: read-out: Maximum % Inhibition. In outline: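 Primary human chondrocytes (passage 2–5) in differentiation medium were stimulated with 10 ng/mL IL1-β for an overnight incubation at 37 °C. MMP-3 in 1:7-diluted supernatant was read by TR-FRET immunoassay against a standard curve, normalised to IL1-β-stimulated wells; EC50 and maximum % inhibition came from nonlinear regression.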
For orientation: Time-resolved FRET reads energy transfer from a long-lived donor to a nearby acceptor.

Test [4] has as its target CLK2 kinase (Homo sapiens, UniProt P49760). In words: CLK2 kinase activity assay (Z-lyte FRET).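 Also: FRET read-out as coumarin to fluorescein emission ratio, unphosphorylated peptide as 0% and phosphorylated peptide as 100% controls, duplicate reactions, non-linear regression fit of dose-response curves.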 The class given is biochemical. The note with it: Z-lyte Ser/Thr 6 peptide, 60 μM ATP, 1 h at room temperature.
In test [5] the test system is primary human mesenchymal stem cells (hMSCs). In words: Chondrogenesis screening using primary human mesenchymal stem cells. It counts as cell-based. Particulars: Homo sapiens, Mesenchymal stem cells, hMSC chondrogenesis; for EC50: concentration required to induce 50% levels of chondrogenesis with TGF-β3 as positive control, read-out: Conc (nM) of 50% TGF-β3 activity; for Emax: maximum activity relative to TGF-β3 (10 ng/mL) positive control, read-out: Max. Activity as % TGF-β3 activity. In outline: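 Derived values are EC50 for 50% chondrogenesis, maximal activity and the dose giving it. These come from nodule area in passage 3–6 primary hMSCs, expressed as fold change over the mean of 3 same-plate DMSO wells, 2–3 replicates per concentration. TGF-β3 served as positive control.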

[6] abbreviates: SW480, Table 4, SW480 cells stably expressing Sp5-Luc reporter, 10-point dose-response from 10 μM, 36 to 48 hours.

CLK2 kinase, sequence (P49760 whole entry): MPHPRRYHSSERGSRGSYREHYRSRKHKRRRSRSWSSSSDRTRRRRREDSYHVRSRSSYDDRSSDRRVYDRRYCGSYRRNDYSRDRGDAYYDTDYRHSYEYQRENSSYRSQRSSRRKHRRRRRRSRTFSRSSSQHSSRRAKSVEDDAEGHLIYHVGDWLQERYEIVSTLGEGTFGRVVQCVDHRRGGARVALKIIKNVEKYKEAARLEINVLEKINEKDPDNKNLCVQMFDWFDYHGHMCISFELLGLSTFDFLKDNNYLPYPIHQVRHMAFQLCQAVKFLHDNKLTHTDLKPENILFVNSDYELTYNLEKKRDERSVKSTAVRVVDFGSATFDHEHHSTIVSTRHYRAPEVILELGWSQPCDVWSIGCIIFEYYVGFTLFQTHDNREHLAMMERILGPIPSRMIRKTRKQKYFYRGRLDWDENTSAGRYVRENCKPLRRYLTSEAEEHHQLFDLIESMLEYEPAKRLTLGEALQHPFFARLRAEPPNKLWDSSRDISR
CLK3 kinase, sequence (P49761 whole entry): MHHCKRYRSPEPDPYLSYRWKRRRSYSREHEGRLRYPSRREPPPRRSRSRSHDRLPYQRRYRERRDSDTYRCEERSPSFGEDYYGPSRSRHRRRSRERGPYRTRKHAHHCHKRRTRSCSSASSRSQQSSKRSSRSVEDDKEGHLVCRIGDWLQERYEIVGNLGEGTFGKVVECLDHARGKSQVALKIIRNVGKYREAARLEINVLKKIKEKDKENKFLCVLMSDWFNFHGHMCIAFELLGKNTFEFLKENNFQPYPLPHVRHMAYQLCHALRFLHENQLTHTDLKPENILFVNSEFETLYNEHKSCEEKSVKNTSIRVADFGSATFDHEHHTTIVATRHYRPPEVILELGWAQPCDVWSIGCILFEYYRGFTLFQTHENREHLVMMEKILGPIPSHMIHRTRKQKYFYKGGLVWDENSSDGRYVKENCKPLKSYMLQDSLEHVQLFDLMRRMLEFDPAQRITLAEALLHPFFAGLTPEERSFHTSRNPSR

On to `CC(C)Oc1ccc(NC(=O)c2n[nH]c3ccc(-c4cncc(CN5CC6CC(C5)O6)c4)cc23)cn1` [compound 102], for which the EC50 is 0.088 µM in test [1]; 0.061 µM in test [2] (SW480); 0.0002 µM in test [3]; 0.002 µM in test [4]; 30 nM in test [5]. For the same compound, the Emax in test [3] was found to be 26.3%; in test [5], 75.7%.

Turning to `CN(C)C(=O)Nc1cncc(-c2cnc3[nH]nc(-c4nc5c(-c6cccc(F)c6)cncc5[nH]4)c3c2)c1` [compound 130], the EC50 stood at 0.018 µM in test [1], 0.01 µM in test [2] (setting [6]), 0.0406 µM in test [3] and 0.003 µM in test [4]. Further, the Emax in test [3] worked out at 60.5%; in test [5], 68.1%.

As to `O=C1CCc2cccc(c2)-c2cncc(c2)NC(=O)c2n[nH]c3ccc(cc23)-c2cncc(c2)CN1` [compound 622], the EC50 was 0.036 µM in test [1]; greater than 10 µM in test [2] (setting [6]); 0.01 µM in test [3]; 0.005 µM in test [4]; 30 nM in test [5]. Further, the Emax in test [3] turned out to be 83.8%; in test [5] it was 69.4%.

As for `O=C(Nc1ccc(CN2CCCC2)cc1)c1n[nH]cc1/C=C/c1cccnc1` [compound 17], the EC50 in test [1] stood at 2.67 µM; in test [2] (setting [6]), 0.988 µM; in test [3] it was 0.0037 µM; in test [4], 0.017 µM; in test [5], 900 nM. Moreover, the figures for the Emax in test [3] and in test [5] were 64.7% and 194%, respectively.

With `CN1CCC(n2cc(NC(=O)c3n[nH]c4ccc(-c5cnn(C)c5)cc34)cn2)CC1` [compound 106], the EC50 in test [1] came out at 0.055 µM; in test [2] (setting [6]) it was 0.079 µM; in test [3], 0.818 µM; in test [4], 0.001 µM. The figures for the Emax in test [3] and in test [5] were 100% and 23.6%, respectively.
